The text below walks through data of patent US12115209B2, “ROMO1-derived antimicrobial peptides including lysine substitution and variants thereof” (KOREA UNIVERSITY RESEARCH AND BUSINESS FOUNDATION, priority 2019, dated 2024).

The subject of one experiment is Pseudomonas aeruginosa (ATCC 27853). The experiment in a line: Minimum bactericidal concentration (MBC) assay. The experiment is classed as cell-based. More on the design: MBC Pseudomonas aeruginosa: unit: µg/mL. The note with it: Pseudomonas aeruginosa. In outline: (§1)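 A 1 h killing step at 37° C in 10 mM sodium phosphate with 1% TSB exposes 1×10^5 CFU/ml of each strain to peptide across 0–300 μg/ml. The lowest peptide concentration leaving no colonies after 18 h on TS agar defines the MBC.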
Consider d 58K 60M 71M 72A (MKKGGKFGTF), for which the MBC Pseudomonas aeruginosa was found to be 20 µg/mL.

For d 58K 64G 72A 75M (GKFGTFM), the MBC Pseudomonas aeruginosa is 6 µg/mL.

Substance d 60M 61M 71M 75M (KKGGKFGTF) registered an MBC Pseudomonas aeruginosa of 2 µg/mL.

d 60M 62K 71M 75M (KGGKFGTF) showed an MBC Pseudomonas aeruginosa of 2 µg/mL.

d 60M 69T 71M 75M (MKKGGKFG) returned an MBC Pseudomonas aeruginosa of 2 µg/mL.

d 60M 71M 72A 75M (MKKGGKFGTF): the MBC Pseudomonas aeruginosa stood at 2 µg/mL.

Staying with this experiment, now noted: Tables 11-21, no unit printed.
Take “KKMMKKGGKFG-FMAIGMGIR [Peptide 5878-K4-d69T]”: the MBC Pseudomonas aeruginosa came out at 4 µg/mL.

For the substance KKMMKKGGKFGGFMAIGMGIR [Peptide K4-T69G], the “MBC Pseudomonas aeruginosa” value is on record as 2.

Take KKMMKKGGKFGTF--IG-GIR [d 71M 72A 75M]: the MBC Pseudomonas aeruginosa came to 2 µg/mL.

“KKMMKKGGKFGTF--IGMGIR [Peptide K4-d71M-d72A]” had an MBC Pseudomonas aeruginosa of 20 µg/mL.

On to “KKMMKKGGKFGTF-AIG-GIR [Peptide K4-d71M-d75M]”, for which the MBC Pseudomonas aeruginosa was determined as 4 µg/mL.

Substance “KKMMKKGGKFGTF-AIGMGIR [Peptide 5878-K4-d71M]” gave an MBC Pseudomonas aeruginosa of 2 µg/mL.

The substance “KKMMKKGGKFGTFM-IGMGIR [Peptide 5878-K4-d72A]” returned an MBC Pseudomonas aeruginosa of 2 µg/mL.

For “KKMMKKGGKFGTFMAI-MGIR [Peptide 5878-K4-d74G]”, the MBC Pseudomonas aeruginosa was 2 µg/mL.

On to “KKMMKKGGKFGTFMAIG-GIR [Peptide 5878-K4-d75M]”, for which the MBC Pseudomonas aeruginosa was found to be 2 µg/mL.

For “KKMMKKGGKFGTFMAIGM-IR [Peptide 5878-K4-d76G]”, the MBC Pseudomonas aeruginosa was 4 µg/mL.

In a further experiment the test system is Methicillin-resistant Staphylococcus aureus (MRSA, ATCC 33591). The experiment in a line: Minimum bactericidal concentration (MBC) assay. In kind it is cell-based. Details: unit: µg/mL. Conditions: MRSA. An outline of the steps: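 Peptide at 0 to 300 μg/ml reacted 1 h at 37 °C with 1×10^5 CFU/ml bacteria in SP buffer (10 mM sodium phosphate, 1% TSB), bacteria pre-grown in 3% TSB. Aliquots then spread on TS agar and checked for colonies after 18 h at 37 °C.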
d 58K 60M 71M 72A (MKKGGKFGTF) displayed an MBC MRSA of 20 µg/mL.

For the substance d 58K 64G 72A 75M (GKFGTFM), the MBC MRSA stood at 8 µg/mL.

d 60M 61M 71M 75M (KKGGKFGTF) displayed an MBC MRSA of 2 µg/mL.

In turn, d 60M 62K 71M 75M (KGGKFGTF) displayed an MBC MRSA of 3 µg/mL.

Turning to d 60M 69T 71M 75M (MKKGGKFG), the MBC MRSA came out at 2 µg/mL.

Turning to d 60M 71M 72A 75M (MKKGGKFGTF), the MBC MRSA came out at 3 µg/mL.

Still in this experiment, the particulars now being: Tables 11-21, no unit printed.
For “KKMMKKGGKFG-FMAIGMGIR [Peptide 5878-K4-d69T]”, the MBC MRSA was 2 µg/mL.

Consider KKMMKKGGKFGGFMAIGMGIR [Peptide K4-T69G], for which the “MBC MRSA” value was found to be 3.

As for KKMMKKGGKFGTF--IG-GIR [d 71M 72A 75M], the MBC MRSA is 3 µg/mL.

As to “KKMMKKGGKFGTF--IGMGIR [Peptide K4-d71M-d72A]”, the MBC MRSA was found to be 20 µg/mL.

Turning to “KKMMKKGGKFGTF-AIG-GIR [Peptide K4-d71M-d75M]”, the MBC MRSA was found to be 5 µg/mL.

Turning to “KKMMKKGGKFGTF-AIGMGIR [Peptide 5878-K4-d71M]”, the MBC MRSA was 4 µg/mL.

“KKMMKKGGKFGTFM-IGMGIR [Peptide 5878-K4-d72A]” had an MBC MRSA of 3 µg/mL.

In turn, “KKMMKKGGKFGTFMAI-MGIR [Peptide 5878-K4-d74G]” registered an MBC MRSA of 3 µg/mL.

The substance “KKMMKKGGKFGTFMAIG-GIR [Peptide 5878-K4-d75M]” had an MBC MRSA of 2 µg/mL.

In turn, “KKMMKKGGKFGTFMAIGM-IR [Peptide 5878-K4-d76G]” showed an MBC MRSA of 4 µg/mL.

The test system of another experiment is Pseudomonas aeruginosa, Staphylococcus aureus, CRPA, MRSA. As to the kind of experiment: Increase in antibacterial activity (MBC) compared with KU-5878. The experiment is classed as cell-based. The note with it: compared with KU-5878.
For d 58K 60M 71M 72A (MKKGGKFGTF), the Increase in activity result was “◯”.

Regarding d 58K 64G 72A 75M (GKFGTFM), the Increase in activity entry is on record as “◯”.

With d 60M 61M 71M 75M (KKGGKFGTF), the Increase in activity result is recorded as “◯”.

d 60M 62K 71M 75M (KGGKFGTF): the Increase in activity entry is on record as “◯”.

In the case of d 60M 69T 71M 75M (MKKGGKFG), the Increase in activity result is listed as “◯”.

Consider d 60M 71M 72A 75M (MKKGGKFGTF), for which the Increase in activity entry is recorded as “◯”.

Still in this experiment, the particulars now being: mark = antibacterial activity increased compared with KU-5878.
In the case of “KKMMKKGGKFG-FMAIGMGIR [Peptide 5878-K4-d69T]”, the Increase in activity result is reported as “◯”.

As to KKMMKKGGKFGGFMAIGMGIR [Peptide K4-T69G], the Increase in activity result is recorded as “◯”.

With KKMMKKGGKFGTF--IG-GIR [d 71M 72A 75M], the Increase in activity result is “◯”.

As for “KKMMKKGGKFGTF--IGMGIR [Peptide K4-d71M-d72A]”, the Increase in activity result is recorded as “◯”.

As to “KKMMKKGGKFGTF-AIG-GIR [Peptide K4-d71M-d75M]”, the Increase in activity entry is listed as “◯”.

Consider “KKMMKKGGKFGTF-AIGMGIR [Peptide 5878-K4-d71M]”, for which the Increase in activity entry is reported as “◯”.

With “KKMMKKGGKFGTFM-IGMGIR [Peptide 5878-K4-d72A]”, the Increase in activity result is recorded as “◯”.

Turning to “KKMMKKGGKFGTFMAI-MGIR [Peptide 5878-K4-d74G]”, the Increase in activity entry is given as “◯”.

As to “KKMMKKGGKFGTFMAIG-GIR [Peptide 5878-K4-d75M]”, the Increase in activity entry is reported as “◯”.

For “KKMMKKGGKFGTFMAIGM-IR [Peptide 5878-K4-d76G]”, the Increase in activity result is “◯”.

A further experiment has as its system CRPA. The experiment in a line: Minimum bactericidal concentration (MBC) assay. The experiment is classed as cell-based. Details: unit: µg/mL. Conditions: CRPA.
d 58K 60M 71M 72A (MKKGGKFGTF): the MBC CRPA came to 20 µg/mL.

As to d 58K 64G 72A 75M (GKFGTFM), the MBC CRPA turned out to be 8 µg/mL.

For the substance d 60M 61M 71M 75M (KKGGKFGTF), the MBC CRPA was determined as 2 µg/mL.

With d 60M 62K 71M 75M (KGGKFGTF), the MBC CRPA came to 3 µg/mL.

As to d 60M 69T 71M 75M (MKKGGKFG), the MBC CRPA was 2 µg/mL.

As to d 60M 71M 72A 75M (MKKGGKFGTF), the MBC CRPA came to 2 µg/mL.

Still in this experiment, the particulars now being: Tables 11-21, no unit printed.
In the case of “KKMMKKGGKFG-FMAIGMGIR [Peptide 5878-K4-d69T]”, the MBC CRPA is 3 µg/mL.

With KKMMKKGGKFGGFMAIGMGIR [Peptide K4-T69G], the “MBC CRPA” value was 2.

With KKMMKKGGKFGTF--IG-GIR [d 71M 72A 75M], the MBC CRPA was 2 µg/mL.

“KKMMKKGGKFGTF--IGMGIR [Peptide K4-d71M-d72A]” showed an MBC CRPA of 20 µg/mL.

Turning to “KKMMKKGGKFGTF-AIG-GIR [Peptide K4-d71M-d75M]”, the MBC CRPA was 4 µg/mL.

For “KKMMKKGGKFGTF-AIGMGIR [Peptide 5878-K4-d71M]”, the MBC CRPA came out at 6 µg/mL.

For the substance “KKMMKKGGKFGTFM-IGMGIR [Peptide 5878-K4-d72A]”, the MBC CRPA was determined as 4 µg/mL.

For “KKMMKKGGKFGTFMAI-MGIR [Peptide 5878-K4-d74G]”, the MBC CRPA was determined as 4 µg/mL.

Substance “KKMMKKGGKFGTFMAIG-GIR [Peptide 5878-K4-d75M]” registered an MBC CRPA of 4 µg/mL.

Consider “KKMMKKGGKFGTFMAIGM-IR [Peptide 5878-K4-d76G]”, for which the MBC CRPA worked out at 4 µg/mL.

The subject of the next experiment is Staphylococcus aureus (ATCC 29213). The experiment in a line: Minimum bactericidal concentration (MBC) assay. In kind it is cell-based. Details: MBC Staphylococcus aureus: unit: µg/mL. The note with it: Staphylococcus aureus. An outline of the steps: as §1
As to d 58K 60M 71M 72A (MKKGGKFGTF), the MBC Staphylococcus aureus came out at 15 µg/mL.

Substance d 58K 64G 72A 75M (GKFGTFM) had an MBC Staphylococcus aureus of 6 µg/mL.

Consider d 60M 61M 71M 75M (KKGGKFGTF), for which the MBC Staphylococcus aureus is 1 µg/mL.

On to d 60M 62K 71M 75M (KGGKFGTF), for which the MBC Staphylococcus aureus was 2 µg/mL.

d 60M 69T 71M 75M (MKKGGKFG) displayed an MBC Staphylococcus aureus of 1 µg/mL.

For the substance d 60M 71M 72A 75M (MKKGGKFGTF), the MBC Staphylococcus aureus stood at 1 µg/mL.

The experiment is the same for the next values; noted with them: Tables 11-21, no unit printed.
Substance “KKMMKKGGKFG-FMAIGMGIR [Peptide 5878-K4-d69T]” came in with an MBC Staphylococcus aureus of 2 µg/mL.

For KKMMKKGGKFGGFMAIGMGIR [Peptide K4-T69G], the “MBC Staphylococcus aureus” value amounted to 2.

On to KKMMKKGGKFGTF--IG-GIR [d 71M 72A 75M], for which the MBC Staphylococcus aureus was 3 µg/mL.

In the case of “KKMMKKGGKFGTF--IGMGIR [Peptide K4-d71M-d72A]”, the MBC Staphylococcus aureus is 20 µg/mL.

“KKMMKKGGKFGTF-AIG-GIR [Peptide K4-d71M-d75M]” displayed an MBC Staphylococcus aureus of 3 µg/mL.

“KKMMKKGGKFGTF-AIGMGIR [Peptide 5878-K4-d71M]” registered an MBC Staphylococcus aureus of 4 µg/mL.

With “KKMMKKGGKFGTFM-IGMGIR [Peptide 5878-K4-d72A]”, the MBC Staphylococcus aureus is 2 µg/mL.

Substance “KKMMKKGGKFGTFMAI-MGIR [Peptide 5878-K4-d74G]” displayed an MBC Staphylococcus aureus of 2 µg/mL.

“KKMMKKGGKFGTFMAIG-GIR [Peptide 5878-K4-d75M]” showed an MBC Staphylococcus aureus of 2 µg/mL.

With “KKMMKKGGKFGTFMAIGM-IR [Peptide 5878-K4-d76G]”, the MBC Staphylococcus aureus was 4 µg/mL.
